Experiment [1] deals with HDAC8 enzyme (recombinant GST-HDAC8) (Homo sapiens (Human), UniProt Q9BY41). The experiment is described as follows: In vitro HDAC assay (BIOMOL fluorescent-based HDAC activity assay), HDAC8. Type of experiment: biochemical.
Description: (§1) The assay has been carried out in 96 well format and the BIOMOL fluorescent-based HDAC activity assay has been applied. […] Flur de lys Developer was added and the reaction was incubated for 10 min. Briefly, deacetylation of the substrate sensitizes it to the developer, which then generates a fluorophore (symbol). The fluorophore is excited with 360 nm light and the emitted light (460 nm) is detected on a fluorometric plate reader (Tecan Ultra Microplate detection system, Tecan Group Ltd.).
(§2) The analytical software, Prism 3.0 has been used to generate IC50 from a series of data.
The target of experiment [2] is HDAC1 enzyme (recombinant GST-HDAC1) (Homo sapiens (Human), UniProt Q13547). The experiment is described as follows: In vitro HDAC assay (BIOMOL fluorescent-based HDAC activity assay), HDAC1. Type of experiment: biochemical.
HDAC1 enzyme (recombinant GST-HDAC1), sequence (Q13547 whole entry): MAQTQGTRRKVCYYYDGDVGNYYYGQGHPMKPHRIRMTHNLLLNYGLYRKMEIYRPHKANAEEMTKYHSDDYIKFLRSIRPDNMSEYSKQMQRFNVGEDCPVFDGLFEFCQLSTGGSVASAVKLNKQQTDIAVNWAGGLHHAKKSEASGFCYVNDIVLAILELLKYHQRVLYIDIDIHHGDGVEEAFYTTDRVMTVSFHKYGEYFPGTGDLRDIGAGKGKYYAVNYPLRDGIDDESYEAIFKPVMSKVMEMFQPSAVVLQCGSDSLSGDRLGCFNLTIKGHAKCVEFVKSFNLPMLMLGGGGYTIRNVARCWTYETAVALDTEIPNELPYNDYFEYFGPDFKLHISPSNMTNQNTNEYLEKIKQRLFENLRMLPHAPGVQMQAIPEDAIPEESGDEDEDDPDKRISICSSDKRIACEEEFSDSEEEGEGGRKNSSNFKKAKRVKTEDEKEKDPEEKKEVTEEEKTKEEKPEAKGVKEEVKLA
Description: as §1, §2
Where [3] appears, read: read-out: HDAC8 Enzyme Activity IC50.
Setting [4] is: read-out: HDAC1 Enzyme Activity IC50.
Where [5] appears, read: Free base, read-out: IC50 (HDAC8).
The mark [6] stands for this setting: Free base, read-out: IC50 (HDAC1).

Read-outs that look alike come from different tables or passages of the source.

Usually IC50 stands for the concentration that gives 50% inhibition.

HDAC8 enzyme (recombinant GST-HDAC8), sequence (Q9BY41 whole entry): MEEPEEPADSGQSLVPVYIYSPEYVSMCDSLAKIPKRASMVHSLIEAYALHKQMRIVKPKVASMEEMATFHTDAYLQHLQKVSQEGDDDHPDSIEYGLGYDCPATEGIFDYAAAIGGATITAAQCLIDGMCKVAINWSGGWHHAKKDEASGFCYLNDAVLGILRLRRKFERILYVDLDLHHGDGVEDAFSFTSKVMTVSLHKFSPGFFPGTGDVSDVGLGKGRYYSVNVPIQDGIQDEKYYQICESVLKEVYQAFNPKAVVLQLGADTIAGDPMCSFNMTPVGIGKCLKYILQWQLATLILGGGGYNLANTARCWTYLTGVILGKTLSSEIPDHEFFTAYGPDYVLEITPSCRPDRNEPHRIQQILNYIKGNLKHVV

Consider `CC(Cc1nc2cc(/C=C/C(=O)NO)ccc2n1CCCO)c1ccccc1` (centres unmarked) [Compound 1, N-Hydroxy-3-[1-(3-hydroxy-propyl)-2-(2-phenyl-propyl)-1H-benzimidazol-5-yl]-acrylamide], for which the results for the 50% inhibitory concentration (IC50) in experiment [1] (setting [3]) and in experiment [2] (setting [4]) were 0.119 µM and 0.051 µM, respectively.

Take `COc1cc(Cn2c(CCc3ccccc3)nc3cc(/C=C/C(=O)NO)ccc32)cc(OC)c1OC` [Compound 2, N-Hydroxy-3-[1-(3,4,5-trimethoxybenzyl)-2-(2-phenyl-ethyl)-1H-benzimidazol-5-yl]-acrylamide]: the IC50 came out at 0.267 µM in experiment [1] (setting [5]); 0.355 µM in experiment [1] (setting [3]); 0.043 µM in experiment [2] (setting [6]); 0.049 µM in experiment [2] (Salt of CF3COOH, read-out: IC50 (HDAC1)); 0.026 µM in experiment [2] (setting [4]).

`COc1cc(-c2nc3cc(/C=C/C(=O)NO)ccc3n2CCCO)ccc1OCc1ccccc1` [Compound 4, N-Hydroxy-3-[2-(4-benzyloxy-3-methoxy-phenyl)-1-(3-hydroxy-propyl)-1H-benzimidazole-5-yl]-acrylamide]: the IC50 amounted to 0.79 µM in experiment [1] (setting [3]) and 1.34 µM in experiment [2] (setting [4]).

Consider `COc1ccc(-c2nc3cc(/C=C/C(=O)NO)ccc3n2CCO)cc1` [Compound 5, N-Hydroxy-3-[1-(2-hydroxy-ethyl)-2-(4-methoxy-phenyl)-1H-benzimidazole-5-yl]-acrylamide], for which the IC50 in experiment [1] (setting [3]) was found to be 0.401 µM; in experiment [2] (setting [4]) it was 4.32 µM.

For the compound `COc1cc(-c2nc3cc(/C=C/C(=O)NO)ccc3n2CC(O)CO)ccc1OCc1ccccc1` (centres unmarked) [Compound 7, N-Hydroxy-3-[2-(4-benzyloxy-3-methoxy-phenyl)-1-(2,3-hydroxy-propyl)-1H-benzimidazole-5-yl]-acrylamide], the IC50 in experiment [1] (setting [3]) turned out to be 0.336 µM; in experiment [2] (setting [4]), 1.52 µM.

For `O=C(/C=C/c1ccc2c(c1)nc(CCc1ccccc1)n2CC(O)CO)NO` (centres unmarked) [Compound 8], the IC50 in experiment [1] (setting [3]) amounted to 0.454 µM.

`O=C(/C=C/c1ccc2c(c1)nc(-c1ccccn1)n2CC(O)CO)NO` (centres unmarked) [Compound 9, N-Hydroxy-3-[1-(2,3-hydroxy-propyl)-2-(2-pyridyl)-1H-benzimidazol-5-yl]-acrylamide]: the values for the IC50 in experiment [1] (setting [3]) and in experiment [2] (setting [4]) were 0.344 µM and 1.34 µM, respectively.

Turning to `O=C(/C=C/c1ccc2c(c1)nc(-c1ccncc1)n2CCO)NO` [Compound 10, N-Hydroxy-3-[1-(2-hydroxy-ethyl)-2-(4-pyridyl)-1H-benzimidazol-5-yl]-acrylamide], the figures for the IC50 in experiment [1] (setting [3]) and in experiment [2] (setting [4]) were 0.883 µM and 2.66 µM, respectively.

Regarding `O=C(/C=C/c1ccc2c(c1)nc(-c1ccncc1)n2CCCO)NO` [Compound 11, N-Hydroxy-3-[1-(3-hydroxy-propyl)-2-(4-pyridyl)-1H-benzimidazol-5-yl]-acrylamide], the IC50 came to 0.161 µM in experiment [1] (setting [3]) and 0.846 µM in experiment [2] (setting [4]).

Regarding `O=C(/C=C/c1ccc2c(c1)nc(CCc1ccccc1)n2Cc1cccnc1)NO` [Compound 12, N-Hydroxy-3-[1-(3-pyridylmethyl)-2-(2-phenyl-ethyl)-1H-benzimidazol-5-yl]-acrylamide], the figures for the half-maximal inhibitory concentration (IC50) in experiment [1] (setting [3]) and in experiment [2] (setting [4]) were 0.202 µM and 0.131 µM, respectively.

Regarding `O=C(/C=C/c1ccc2c(c1)nc(-c1ccccn1)n2CCCO)NO` [Compound 13, N-Hydroxy-3-[1-(3-hydroxy-propyl)-2-(2-pyridyl)-1H-benzimidazol-5-yl]-acrylamide], the IC50 in experiment [1] (setting [3]) is 0.141 µM.

For `O=C(/C=C/c1ccc2c(c1)nc(CCc1ccccc1)n2CCCO)NO` [Compound 14, N-Hydroxy-3-[1-(3-hydroxy-propyl)-2-phenethyl-1H-benzimidazol-5-yl]-acrylamide], the IC50 stood at 0.251 µM in experiment [1] (setting [3]) and 0.171 µM in experiment [2] (setting [4]).

Regarding `COCCCn1c(CCc2ccccc2)nc2cc(/C=C/C(=O)NO)ccc21` [Compound 15], the IC50 in experiment [1] (setting [3]) came out at 0.313 µM.

As for `O=C(/C=C/c1ccc2c(c1)nc(CCc1ccccc1)n2Cc1ccccn1)NO` [Compound 16, N-Hydroxy-3-(2-phenethyl-1-(pyridin-2-yl)methyl-1H-benzimidazol-5-yl)-acrylamide], the IC50 in experiment [1] (setting [3]) turned out to be 0.366 µM; in experiment [2] (setting [4]), 0.194 µM.

Consider `CN(C)CC(C)(C)Cn1c(CCc2ccccc2)nc2cc(/C=C/C(=O)NO)ccc21` [Compound 17, N-Hydroxy-3-[1-(3-Dimethylamino-2,2-dimethyl-propyl)-2-phenethyl-1H-benzimidazol-5-yl]-acrylamide], for which the IC50 in experiment [1] (setting [5]) is 0.353 µM; in experiment [2] (setting [6]), 0.029 µM; in experiment [2] (Salt of HCl, read-out: IC50 (HDAC1)), 0.044 µM; in experiment [2] (Salt of Methane sulfonic acid, read-out: IC50 (HDAC1)), 0.051 µM.

Regarding `O=C(/C=C/c1ccc2c(c1)nc(CCc1ccccc1)n2CCc1ccccn1)NO` [Compound 18], in experiment [1] (setting [3]), the 50% inhibitory concentration (IC50) worked out at 0.29 µM.

Take `O=C(/C=C/c1ccc2c(c1)nc(COCc1ccccc1)n2CCCO)NO` [Compound 19]: the figures for the IC50 in experiment [1] (setting [3]) and in experiment [2] (setting [4]) were 0.145 µM and 0.165 µM, respectively.

With `O=C(/C=C/c1ccc2c(c1)nc(-c1ccsc1)n2CCCO)NO` [Compound 20, N-Hydroxy-3-[1-(3-hydroxy-propyl)-2-thiophen-3-yl-1H-benzimidazol-5-yl]-acrylamide], the IC50 in experiment [1] (setting [3]) is 0.537 µM; in experiment [2] (setting [4]), 1.91 µM.

For the compound `CC(C)Cc1nc2cc(/C=C/C(=O)NO)ccc2n1CCCO` [Compound 21, N-Hydroxy-3-[1-(3-hydroxy-propyl)-2-isobutyl-1H-benzimidazol-5-yl]-acrylamide], the values for the half-inhibitory concentration (IC50) in experiment [1] (setting [3]) and in experiment [2] (setting [4]) were 0.238 µM and 0.064 µM, respectively.

In the case of `CC(C)Cc1nc2cc(/C=C/C(=O)NO)ccc2n1CCc1ccccn1` [Compound 22], in experiment [1] (setting [3]), the IC50 was 0.234 µM.

Take `CCCCCCCCc1nc2cc(/C=C/C(=O)NO)ccc2n1CCCO` [Compound 23, N-Hydroxy-3-[1-(3-hydroxy-propyl)-2-octyl-1H-benzimidazol-5-yl]-acrylamide]: the IC50 amounted to 0.402 µM in experiment [1] (setting [3]) and 0.529 µM in experiment [2] (setting [4]).

Regarding `CC(C)Cc1nc2cc(/C=C/C(=O)NO)ccc2n1CCc1ccccc1` [Compound 25, N-Hydroxy-3-(2-isobutyl-1-phenethyl-1H-benzimidazol-5-yl]-acrylamide], the IC50 turned out to be 0.601 µM in experiment [1] (setting [3]) and 1.32 µM in experiment [2] (setting [4]).

Turning to `O=C(/C=C/c1ccc2c(c1)nc(CCc1ccccc1)n2CCc1cccnc1)NO` [Compound 27, N-Hydroxy-3-(2-phenethyl-1-(2-pyridin-3-yl-ethyl)-1H-benzimidazol-5-yl]-acrylamide], the IC50 stood at 0.329 µM in experiment [1] (setting [3]) and 0.092 µM in experiment [2] (setting [4]).

For the compound `O=C(/C=C/c1ccc2c(c1)nc(COCc1ccccc1)n2CCc1cccnc1)NO` [Compound 28], the IC50 in experiment [1] (setting [3]) was found to be 0.3 µM.

With `CC(C)Cc1nc2cc(CCC(=O)NO)ccc2n1CCCO` [Compound 29, N-Hydroxy-3-[1-(3-Hydroxy-propyl)-2-isobutyl-1H-benzimidazol-5-yl]-propionamide], the IC50 in experiment [1] (setting [3]) worked out at 34 µM.

As for `O=C(/C=C/c1ccc2c(c1)nc(CCc1ccccc1)n2CCCN1CCCC1=O)NO` [Compound 30, N-Hydroxy-3-{1-[3-(2-oxo-pyrrolidin-1-yl)-propyl]-2-phenethyl-1H-benzimidazol-5-yl}-acrylamide], the half-inhibitory concentration (IC50) in experiment [1] (setting [3]) turned out to be 0.724 µM; in experiment [2] (setting [4]), 0.195 µM.

Take `O=C(/C=C/c1ccc2c(c1)nc(CCc1ccccc1)n2CCCN1CCOCC1)NO` [Compound 31, N-Hydroxy-3-[1-(3-morpholin-4-propyl]-2-phenethyl-1H-benzimidazol-5-yl}-acrylamide]: the IC50 came out at 1.09 µM in experiment [1] (setting [3]) and 0.246 µM in experiment [2] (setting [4]).

In the case of `O=C(/C=C/c1ccc2c(c1)nc(CCc1ccccc1)n2Cc1ccccc1)NO` [Compound 33, N-Hydroxy-3-(1-Benzyl-2-phenethyl-1H-benzimidazol-5-yl}-acrylamide], the IC50 in experiment [1] (setting [3]) was found to be 1.45 µM; in experiment [2] (setting [4]), 0.449 µM.

Turning to `CC(C)Cc1nc2cc(/C=C/C(=O)NO)ccc2n1Cc1ccccc1` [Compound 34, N-Hydroxy-3-(1-Benzyl-2-isobutyl-1H-benzimidazol-5-yl}-acrylamide], the IC50 in experiment [1] (setting [3]) came to 0.846 µM; in experiment [2] (setting [4]), 1.46 µM.

As for `O=C(/C=C/c1ccc2c(c1)ncn2Cc1ccccc1)NO` [Compound 35, N-Hydroxy-3-(1-Benzyl-1H-benzimidazol-5-yl}-acrylamide], the IC50 is 0.412 µM in experiment [1] (setting [3]) and 0.371 µM in experiment [2] (setting [4]).

For `O=C(NO)c1ccc2c(c1)nc(CCc1ccccc1)n2CCCO` [Compound 40, 1-(3-Hydroxy-propyl)-2-phenethyl-1H-benzimidazol-5-carboxylic acid hydroxyamide], in experiment [1] (setting [3]), the IC50 was 0.441 µM.

Turning to `CC(Cc1nc2cc(/C=C/C(=O)NO)ccc2n1CCc1cccnc1)c1ccccc1` (centres unmarked) [Compound 41], the IC50 in experiment [1] (setting [3]) is 0.159 µM.

On to `O=C(/C=C/c1ccc2c(c1)ncn2CCc1ccccn1)NO` [Compound 42, N-Hydroxy-3-[1-(2-pyridin-2-yl-ethyl)-1H-benzimidazol-5-yl]-acrylamide], for which the IC50 in experiment [1] (setting [3]) worked out at 0.237 µM; in experiment [2] (setting [4]), 0.479 µM.

Turning to `CCn1c(C)nc2cc(/C=C/C(=O)NO)ccc21` [Compound 43, N-Hydroxy-3-(1-Ethyl-2-methyl-1H-benzimidazol-5-yl]-acrylamide], the results for the IC50 in experiment [1] (setting [3]) and in experiment [2] (setting [4]) were 0.192 µM and 0.947 µM, respectively.

As to `CCn1c(Cc2ccccc2)nc2cc(/C=C/C(=O)NO)ccc21` [Compound 92, N-Hydroxy-3-(2-benzyl-1-ethyl-1H-benzimidazol-5-yl)-acrylamide], the IC50 in experiment [2] (setting [4]) came out at 0.168 µM.

For `CCn1c(CCCc2c[nH]c3ccccc23)nc2cc(/C=C/C(=O)NO)ccc21` [Compound 93, N-Hydroxy-3-(1-ethyl-2-[3-(1H-indol-3-yl)-propyl]-1H-benzimidazol-5-yl)-acrylamide], the IC50 in experiment [2] (setting [4]) worked out at 0.065 µM.

As to `COc1cccc(CCc2nc3cc(/C=C/C(=O)NO)ccc3n2CC(C)(C)CN(C)C)c1` [Compound 94, N-Hydroxy-3-(1-(3-dimethylamino-2,2-dimethyl-propyl)-2-[2-(3-methoxy-phenyl)-ethyl]-1H-benzimidazol-5-yl)-acrylamide], in experiment [2] (setting [4]), the IC50 came out at 0.052 µM.

For the compound `CCn1c(CCCOc2ccccc2)nc2cc(/C=C/C(=O)NO)ccc21` [Compound 96, N-Hydroxy-3-[1-ethyl-2-(3-phenoxy-propyl)-1H-benzimidazol-5-yl]-acrylamide], in experiment [2] (setting [4]), the IC50 was 0.125 µM.

The values above are taken from patent US8551988B2, “Benzimidazole derivatives: preparation and pharmaceutical applications” (Mei Pharma, Inc., priority 2003, dated 2013).
